According to patent US8937050B2, “Methods and compositions for treatment of autism” (The Johns Hopkins University, priority 2011, dated 2015):

Legend:
human XALD fibroblasts = conditions: McGuinness et al., 2003; cited from earlier work
[1] = tested on: X-linked Adrenoleukodystrophy; conditions: McGuiness et al., 2003; cited from earlier work
Ischemia = conditions: Qi et al., 2004, Yoon et al., 2008; cited from earlier work
[2] = tested on: ALD (Abcd1−/Y) mouse model; conditions: ALD (Abcd1−/Y) mouse model in vivo; McGuinness et al., 2003; cited from earlier work
ATF4, CHOP, and BIP = experiment: RT-PCR of unfolded protein response (UPR) genes; type: cell-based, human; conditions: for BIP expression at the transcriptional level: normal human fibroblasts, FIG. 4A
Experimental: Following the manufacturer's protocols, DNase I-treated cDNA was synthesized using Superscript III or Thermoscript reverse transcriptase (Invitrogen). PCR reactions were performed in duplicate on the Roche Lightcycler 3.5 (Basel, Switzerland) or the Bio-Rad iCycler (Hercules, Calif.) using Quantitech SYBR green PCR mix (Qiagen, Valencia, Calif.). GeNorm software calculated a normalization factor for each sample using the relative amounts of at least two of the following reference genes, β2-microglobulin, […], actin, and/or eukaryotic elongation factor 1A (Vandesompele et al., 2002). Primers for the various experiments described herein are listed below.
Expression of key components of the HSR, UPR, the autophagic response, and the antioxidant response were monitored at the transcriptional, translational, and/or post-translational level. These responses are known to be transiently activated in response to various cellular stressors. The degree of induction of each component can vary depending on the metabolic state of the cell (e.g., confluency, cell passage number) (Kultz 2003; Lallemand et al., 1998; Westerheide et al., 2009). Due to the transient nature of these responses, several components of each pathway were monitored at various time points within a 24 hour treatment. At least two normal human fibroblast lines were tested in three or more independent experiments. […] The average of the maximal increase in protein expression within a 24 hour time frame was also compared to the untreated sample. Activation of each pathway was assessed by an increase in one or more components of each pathway.
UPR markers evaluated included the central UPR regulator glucose regulated protein 78 (BIP) and other components that are stimulated after the activation of the three ER transmembrane receptors: PKR-like ER kinase (PERK), inositol requiring 1 (IRE1), and activating transcription factor 6 (Fedoroff 2006). […] 2 alpha (eIF2a) is phosphorylated by PERK, attenuates general translation, and induces activating transcription factor 4 (ATF4). CHOP promotes reactivation of PERK. XBP1 mRNA is non-conventionally spliced by the endonuclease activity of IRE1 upon UPR activation.
Normal human fibroblasts were treated with drugs as indicated. The expression of the UPR genes ATF4, CHOP, and BIP was measured as described in FIG. 2E. […] Normal human fibroblasts were treated at various time points and the average of the maximum protein expression of BIP (78 kDa) and phosphorylated eIF2α (38 kDa) is plotted as in FIG. 2F. Actin (43 kDa) was used as a loading control and is the same blot as FIG. 2F. UT denotes untreated cells. M denotes marker lane. […] Normal human fibroblasts were treated. The expression of the unspliced form (XBP1-us; 33 kDa) and the activated and spliced form of XBP1 (XBP1-s; 54 kDa) was analyzed by immunoblotting. BP1-s is a larger protein than XBP1-us due to non-canonical mRNA splicing which results in a larger carboxy-terminal domain. […] The average of the maximum expression of XBP1-s (within 24 hrs.) is plotted as in FIG. 2F. Actin was used as a loading control.

Cystic Fibrosis = conditions: Choo-Kang et al., 2001, Hutt et al., 2010; cited from earlier work
SMN protein = experiment: Immunoblot analyses of SMN protein expression in spinal muscular atrophy fibroblasts; type: cell-based, human
Experimental: Cell lysates were collected in mammalian protein extraction reagent (m-PER; Thermo Scientific, Rockford, Ill.) plus 1×protease inhibitor (Sigma-Aldrich) and 1×Halt phosphatase inhibitor (Thermo Scientific). Denatured SDS-PAGE and immunoblot analyses were performed using the following antibodies: phosphorylated JNK and β-actin from Santa Cruz Biotechnology, HSP70, HSP90, BIP, phosphorylated eIF2α, and XBP1 from Cell Signaling, APG8 (Abgent, San Diego, Calif.), and SOD2 (Stressgen, Ann Arbor, Mich.). Quantitation was performed using a Fuji Intelligent Dark box II, FUJI LAS-1000 Lite software and Image Gauge v4.22 software (Tokyo, Japan).
Spinal muscular atrophy type I (SMA I; GM09677, n=7) or type III (SMA III; 2906, n=2) fibroblasts were treated with either 1.5 mM SFN or 0.5-2 mM SFN, respectively, for 48-72 hr. The average of the relative expression of SMN protein (39 kDa) is plotted. Actin (43 kDa) was used as a loading control.
Spinal muscular atrophy type I (SMA I; GM09677) fibroblasts were treated with either […] HU (n=1) or 1.5 mM SFN (n≧3) in the presence or absence of 10 mM SP600125 (JNK inhibitor), 1 mM 3-methyladenine (APG inhibitor), 2-4 mg/ml antimycin A (MITO inhibitor) or 2 mM sirtinol (SIRT1 inhibitor) for 48 h. SMN protein expression was measured by quantitative immunoblot analyses using actin as a loading control. Fold increases in SMN protein expression are plotted and represented numerically in the table below the graph. Untreated values are normalized to 1. (*P≦0.05; bars=SEM).

[3] = separate experiments, SMA I GM09677, 300 mM HU or 1.5 mM SFN, 48 h, FIG. 8D

Compound | abnormally high levels of very long chain fatty acids (VLCFA) (human XALD fibroblasts) | Therapeutic Effect [1] | Therapeutic Effect (Ischemia) | abnormally high levels of very long chain fatty acids (VLCFA) [2] | BIP expression at the transcriptional level (ATF4, CHOP, and BIP) | Therapeutic Effect (Cystic Fibrosis) | SMN protein expression increase (SMN protein; [3]) | SMN protein expression increase (SMN protein; spinal muscular atrophy type I fibroblasts (GM09677), 1.5 mM SFN, 48-72 hr., FIG. 8C) | SMN protein expression increase (SMN protein; spinal muscular atrophy type III fibroblasts (2906), 0.5-2 mM SFN, 48-72 hr., FIG. 8C) | ATF4 mRNA expression increase (ATF4, CHOP, and BIP; in vitro sulforaphane studies) | BIP increase at the transcriptional level (ATF4, CHOP, and BIP; in vitro sulforaphane studies) | CHOP mRNA expression increase (ATF4, CHOP, and BIP; in vitro sulforaphane studies)
4-phenylbutyrate [4PBA] | normalized | decrease very long chain | protection via antioxidant | normalized | significantly increased | increase proper protein | – | – | – | – | – | –
NC(=O)NO [HU, hydroxyurea] | – | – | – | – | significantly increased | – | 1.4 fold | – | – | – | – | –
C[S@@+]([O-])CCCCN=C=S [SFN, 1-isothiocyanato-4R-(methylsulfinyl)butane] | – | – | protection via antioxidant | – | significantly increased | – | 1.46 fold | 1.57 fold | 1.64 fold | 4-5 fold | 2-3 fold | 4-5 fold
CC(/C=C/C(=O)NO)=C\[C@@H](C)C(=O)c1ccc(N(C)C)cc1 [TSA, trichostatin A] | normalized | decrease very long chain | – | normalized | significantly increased | increase proper protein | – | – | – | – | – | –
